Data from ChEMBL document CHEMBL1201862, “PubChem BioAssay data set” (2004).
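The compound was tested at five concentrations on cells cultured in 96-well plates, with a 48-hour exposure period. GI50 marks 50% less growth.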 Active and inactive are the calls of the source. Rule as the data show it: active = GI50 up to about 1.1 µM and inactive = higher.

Legend:
Assay in all cases: NCI anticancer screen, dose series, 48 h
DLD-1 = test system: DLD-1
RXF 631 = test system: RXF 631
DMS-114 = test system: DMS-114
M19-MEL = test system: M19-MEL
HOP-18 = test system: HOP-18
XF498 = test system: XF498
DMS-273 = test system: DMS-273
Hs-578T = test system: Hs-578T
BT-549 = test system: BT-549

Measured: GI50

COc1ccc(C2ON(c3ccccn3)CC=C2C)cc1 (stereo unspecified)
inactive: DLD-1 > 100 µM | RXF 631 > 100 µM | DMS-114 > 100 µM | M19-MEL > 100 µM | HOP-18 > 100 µM | XF498 > 100 µM | DMS-273 > 100 µM

CSc1nc2nccnc2c(=O)[nH]1
inactive: DLD-1 > 100 µM | DMS-114 > 100 µM | M19-MEL > 100 µM | HOP-18 > 100 µM | XF498 > 100 µM | DMS-273 > 100 µM

Cc1cc(C)n2c(-c3ccccc3)c(C)cc2n1
inactive: DLD-1 42.3 µM | RXF 631 43.6 µM | DMS-114 23.8 µM | M19-MEL 30.2 µM | HOP-18 > 100 µM | DMS-273 27.5 µM

N#CC(C#N)=C(N)/C(C#N)=C\c1ccnc2ccccc12
inactive: DLD-1 5.71 µM | DMS-114 16.8 µM | M19-MEL 19 µM | HOP-18 > 100 µM | XF498 30.1 µM | DMS-273 17.3 µM

CCOC(=O)C1=C(C)NC2=C(C(=O)N(c3ccccc3)C2c2ccccc2)C1c1ccccc1 (stereo unspecified)
inactive: DLD-1 16.5 µM | RXF 631 16.1 µM | DMS-114 16.7 µM | M19-MEL 17.3 µM | HOP-18 20.4 µM | XF498 18.1 µM

C1=CC(=P(c2ccccc2)(c2ccccc2)c2ccccc2)C=C1
inactive: DLD-1 12.5 µM | RXF 631 19.4 µM | DMS-114 4.65 µM | M19-MEL 4.04 µM | XF498 2.91 µM | DMS-273 9.91 µM

CCOP(=O)(OCC)C1CCCOC1=O (stereo unspecified)
inactive: DLD-1 > 100 µM | RXF 631 > 100 µM | DMS-114 > 100 µM | M19-MEL > 100 µM | HOP-18 > 100 µM | XF498 > 100 µM | DMS-273 > 100 µM

CCN(/N=C1\CC2C=CCN(C2)C(=O)Cc2c1[nH]c1ccccc21)S(=O)(=O)c1ccc(C)cc1 (stereo unspecified)
inactive: DLD-1 53.3 µM | RXF 631 96.4 µM | DMS-114 64.6 µM | M19-MEL 76.7 µM | XF498 > 100 µM | DMS-273 62.4 µM

COc1cc(-c2nn3c(=O)n(-c4ccc(Cl)cc4)c(=O)nc3s2)cc(OC)c1OC
inactive: DLD-1 > 86.9 µM | RXF 631 48.1 µM | M19-MEL > 100 µM | HOP-18 57 µM | DMS-273 23.2 µM

N#CC(Cl)CS(=O)(=O)c1ccccc1 (stereo unspecified)
inactive: DLD-1 1.93 µM | Hs-578T 11.8 µM | DMS-114 4.11 µM | M19-MEL 15.8 µM | HOP-18 8.61 µM | BT-549 16.7 µM | XF498 2.62 µM

CCC(=O)C(C(=O)CC)c1c(OC(=O)c2ccccc2)ccc(O)c1C(=O)OC
inactive: RXF 631 > 100 µM | M19-MEL > 100 µM | XF498 > 100 µM | DMS-273 > 100 µM

O=C(NN1C(=O)C(Cl)C1c1ccccc1Cl)c1ccccc1O (stereo unspecified)
inactive: DLD-1 > 100 µM | DMS-114 70 µM | M19-MEL > 100 µM | HOP-18 > 100 µM | XF498 32.7 µM

Clc1ccc(-c2nnc(-c3nn(-c4ccccc4)c4nc5ccccc5nc34)o2)cc1
inactive: DLD-1 18.9 µM | DMS-114 26.1 µM | M19-MEL 70.6 µM | HOP-18 > 100 µM | XF498 13 µM | DMS-273 47.5 µM

Cc1cc2c(C)nn(Cc3ccc(Cl)cc3)c2c(C#N)c1C
inactive: RXF 631 > 100 µM | M19-MEL > 100 µM | HOP-18 > 100 µM | XF498 39.1 µM | DMS-273 > 100 µM

Cc1cc(Br)ccc1/N=N/C1C(=O)ON=C1c1ccccc1 (stereo unspecified)
inactive: DLD-1 90.2 µM | RXF 631 51.6 µM | DMS-114 65.6 µM | M19-MEL 67.6 µM | HOP-18 > 100 µM | DMS-273 > 100 µM

C(=C\C(Sc1ccccc1)c1ccccc1)/NNC1=NN=C(c2ccccc2)C(c2ccccc2)N1 (stereo unspecified)
inactive: DLD-1 18.2 µM | RXF 631 30.5 µM | DMS-114 35.8 µM | M19-MEL 27.7 µM | HOP-18 > 100 µM | XF498 77.1 µM | DMS-273 44.6 µM

CC1CCC2(NC1)OC1CC3[C@@H]4CC=C5C=CCC[C@]5(C)C4CC[C@]3(C)C1C2C (stereo partly specified)
inactive: DLD-1 23.3 µM | DMS-114 20.8 µM | M19-MEL 33.9 µM | HOP-18 32.2 µM | XF498 17.6 µM | DMS-273 > 10 µM

CCc1ccccc1NC(=O)C1=C(C)NC(C)=C(C(=O)Nc2ccccc2CC)C1c1cccc([N+](=O)[O-])c1
inactive: DLD-1 19.9 µM | RXF 631 46.3 µM | DMS-114 30.1 µM | M19-MEL 44.7 µM

COc1ccc(-c2cc(=O)c3c(O)cccc3o2)c(OC)c1OC
inactive: DLD-1 > 100 µM | RXF 631 66.8 µM | DMS-114 18.6 µM | M19-MEL > 100 µM | XF498 65.6 µM | DMS-273 13.7 µM
